{"source": "paper PMC3155652", "about": "(Journal of inorganic biochemistry, 2011)", "molecules": {"B1": {"name": "nNOS: neuronal NOS (protein, UniProt P29475 1-1434, looked up)", "Nitric oxide synthase 1": "MEDHMFGVQQIQPNVISVRLFKRKVGGLGFLVKERVSKPPVIISDLIRGGAAEQSGLIQAGDIILAVNGRPLVDLSYDSALEVLRGIASETHVVLILRGPEGFTTHLETTFTGDGTPKTIRVTQPLGPPTKAVDLSHQPPAGKEQPLAVDGASGPGNGPQHAYDDGQEAGSLPHANGLAPRPPGQDPAKKATRVSLQGRGENNELLKEIEPVLSLLTSGSRGVKGGAPAKAEMKDMGIQVDRDLDGKSHKPLPLGVENDRVFNDLWGKGNVPVVLNNPYSEKEQPPTSGKQSPTKNGSPSKCPRFLKVKNWETEVVLTDTLHLKSTLETGCTEYICMGSIMHPSQHARRPEDVRTKGQLFPLAKEFIDQYYSSIKRFGSKAHMERLEEVNKEIDTTSTYQLKDTELIYGAKHAWRNASRCVGRIQWSKLQVFDARDCTTAHGMFNYICNHVKYATNKGNLRSAITIFPQRTDGKHDFRVWNSQLIRYAGYKQPDGSTLGDPANVQFTEICIQQGWKPPRGRFDVLPLLLQANGNDPELFQIPPELVLEVPIRHPKFEWFKDLGLKWYGLPAVSNMLLEIGGLEFSACPFSGWYMGTEIGVRDYCDNSRYNILEEVAKKMNLDMRKTSSLWKDQALVEINIAVLYSFQSDKVTIVDHHSATESFIKHMENEYRCRGGCPADWVWIVPPMSGSITPVFHQEMLNYRLTPSFEYQPDPWNTHVWKGTNGTPTKRRAIGFKKLAEAVKFSAKLMGQAMAKRVKATILYATETGKSQAYAKTLCEIFKHAFDAKVMSMEEYDIVHLEHETLVLVVTSTFGNGDPPENGEKFGCALMEMRHPNSVQEERKSYKVRFNSVSSYSDSQKSSGDGPDLRDNFESAGPLANVRFSVFGLGSRAYPHFCAFGHAVDTLLEELGGERILKMREGDELCGQEEAFRTWAKKVFKAACDVFCVGDDVNIEKANNSLISNDRSWKRNKFRLTFVAEAPELTQGLSNVHKKRVSAARLLSRQNLQSPKSSRSTIFVRLHTNGSQELQYQPGDHLGVFPGNHEDLVNALIERLEDAPPVNQMVKVELLEERNTALGVISNWTDELRLPPCTIFQAFKYYLDITTPPTPLQLQQFASLATSEKEKQRLLVLSKGLQEYEEWKWGKNPTIVEVLEEFPSIQMPATLLLTQLSLLQPRYYSISSSPDMYPDEVHLTVAIVSYRTRDGEGPIHHGVCSSWLNRIQADELVPCFVRGAPSFHLPRNPQVPCILVGPGTGIAPFRSFWQQRQFDIQHKGMNPCPMVLVFGCRQSKIDHIYREETLQAKNKGVFRELYTAYSREPDKPKKYVQDILQEQLAESVYRALKEQGGHIYVCGDVTMAADVLKAIQRIMTQQGKLSAEDAGVFISRMRDDNRYHEDIFGVTLRTYEVTNRLRSESIAFIEESKKDTDEVFSS"}, "B2": {"name": "murine iNOS: murine inducible NOS (protein, UniProt P29477 1-1144, looked up)", "Nitric oxide synthase, …": "MACPWKFLFKVKSYQSDLKEEKDINNNVKKTPCAVLSPTIQDDPKSHQNGSPQLLTGTAQNVPESLDKLHVTSTRPQYVRIKNWGSGEILHDTLHHKATSDFTCKSKSCLGSIMNPKSLTRGPRDKPTPLEELLPHAIEFINQYYGSFKEAKIEEHLARLEAVTKEIETTGTYQLTLDELIFATKMAWRNAPRCIGRIQWSNLQVFDARNCSTAQEMFQHICRHILYATNNGNIRSAITVFPQRSDGKHDFRLWNSQLIRYAGYQMPDGTIRGDAATLEFTQLCIDLGWKPRYGRFDVLPLVLQADGQDPEVFEIPPDLVLEVTMEHPKYEWFQELGLKWYALPAVANMLLEVGGLEFPACPFNGWYMGTEIGVRDFCDTQRYNILEEVGRRMGLETHTLASLWKDRAVTEINVAVLHSFQKQNVTIMDHHTASESFMKHMQNEYRARGGCPADWIWLVPPVSGSITPVFHQEMLNYVLSPFYYYQIEPWKTHIWQNEKLRPRRREIRFRVLVKVVFFASMLMRKVMASRVRATVLFATETGKSEALARDLATLFSYAFNTKVVCMDQYKASTLEEEQLLLVVTSTFGNGDCPSNGQTLKKSLFMLRELNHTFRYAVFGLGSSMYPQFCAFAHDIDQKLSHLGASQLAPTGEGDELSGQEDAFRSWAVQTFRAACETFDVRSKHHIQIPKRFTSNATWEPQQYRLIQSPEPLDLNRALSSIHAKNVFTMRLKSQQNLQSEKSSRTTLLVQLTFEGSRGPSYLPGEHLGIFPGNQTALVQGILERVVDCPTPHQTVCLEVLDESGSYWVKDKRLPPCSLSQALTYFLDITTPPTQLQLHKLARFATDETDRQRLEALCQPSEYNDWKFSNNPTFLEVLEEFPSLHVPAAFLLSQLPILKPRYYSISSSQDHTPSEVHLTVAVVTYRTRDGQGPLHHGVCSTWIRNLKPQDPVPCFVRSVSGFQLPEDPSQPCILIGPGTGIAPFRSFWQQRLHDSQHKGLKGGRMSLVFGCRHPEEDHLYQEEMQEMVRKRVLFQVHTGYSRLPGKPKVYVQDILQKQLANEVLSVLHGEQGHLYICGDVRMARDVATTLKKLVATKLNLSEEQVEDYFFQLKSQKRYHEDIFGAVFSYGAKKGSALEEPKATRL"}}, "key": {"[1]": {"conditions": "cited from earlier work; for rate of electron transfer to heme from FMN: ref [49]; for interdomain electron transfer FMN to heme: laser flash photolysis, in the presence of CaM, ref [50], [51]"}, "holo Alexa-CaM [2]": {"target": "T1, holo Alexa-CaM (Homo sapiens, UniProt P0DP23, T111W/T35C)", "format": "binding", "conditions": "2 mM EDTA, stopped-flow"}, "holo CaM": {"tested_on": "holo CaM", "conditions": "holo CaM to immobilized target peptide, ref [21]; cited from earlier work"}, "holo Alexa-CaM [3]": {"target": "T1, holo Alexa-CaM", "assay": "Stopped-flow association kinetics of NOS target peptides with holo Alexa-CaM", "format": "binding", "conditions": "pH 8"}, "holo Alexa-CaM [4]": {"target": "T1, holo Alexa-CaM", "assay": "Apparent Kd calculated as koff/kon", "format": "binding"}}, "note": "Ends that are not written are not given here.", "data": [{"molecule": "eNOS: endothelial NOS", "values": [{"measurement": "rate of electron transfer to heme from FMN", "setting": "[1]", "result": "2 to 5", "unit": "s⁻¹"}]}, {"molecule": "rat nNOS: rat neuronal NOS in the presence of CaM", "values": [{"measurement": "interdomain electron transfer FMN to heme", "setting": "[1]", "result": 36, "unit": "s⁻¹"}]}, {"molecule": "CC[C@H](C)[C@H](NC(=O)[C@H](CCCCN)NC(=O)[C@@H](NC(=O)[C@H](C)NC(=O)[C@H](CC(N)=O)NC(=O)[C@H](C)NC(=O)[C@@H](NC(=O)[C@H](CCC(=O)O)NC(=O)[C@H](CCCCN)NC(=O)[C@H](Cc1ccccc1)NC(=O)[C@@H](NC(=O)[C@H](CCCCN)NC(=O)[C@H](CCCCN)NC(=O)[C@@H](N)CCCNC(=N)N)[C@@H](C)O)C(C)C)C(C)C)C(=O)N[C@@H](CO)C(=O)N[C@@H](C)C(=O)N[C@@H](CO)C(=O)N[C@@H](CC(C)C)C(=O)N[C@@H](CCSC)C(=O)NCC(=O)O", "note": "[eNOS492–511]", "values": [{"measurement": "fast phase, share of overall FW110 increase", "setting": "holo Alexa-CaM [2]", "result": 83, "unit": "%"}]}, {"molecule": "human iNOS: human inducible NOS", "values": [{"measurement": "interdomain electron transfer FMN to heme", "setting": "[1]", "result": 34, "unit": "s⁻¹"}]}, {"molecule": "iNOS: inducible NOS", "values": [{"measurement": "rate of electron transfer to heme from FMN", "setting": "[1]", "result": 11, "unit": "s⁻¹"}]}, {"molecule": "nNOS725–750: immobilized nNOS target peptide of previous SPR study (NGTPTKRRAIGFKKLAEAVKFSAKLM; UniProt P29475 725-750, looked up, fragment)", "values": [{"measurement": "kon (binding rate by SPR)", "setting": "holo CaM", "result": 158000, "unit": "M⁻¹ s⁻¹"}]}, {"molecule": "RRAIGFKKLAEAVKFSAKLMGGAM [nNOS726–749]", "values": [{"measurement": "kon", "setting": "holo Alexa-CaM [3]", "result": "6.6e+08", "unit": "M⁻¹ s⁻¹"}, {"measurement": "fast phase, share of overall FW110 increase", "setting": "holo Alexa-CaM [2]", "result": 81, "unit": "%"}, {"measurement": "Kd", "setting": "holo Alexa-CaM [4]", "result": 5.6, "unit": "nM"}]}, {"molecule": "B1", "values": [{"measurement": "interdomain electron transfer FMN to heme in absence of CaM", "setting": "[1]; absence of CaM, ref [51]", "result": "No such redox event was observed"}, {"measurement": "rate of electron transfer to heme from FMN", "setting": "[1]", "result": "40 to 50", "unit": "s⁻¹"}]}, {"molecule": "B2", "values": [{"measurement": "interdomain electron transfer FMN to heme", "setting": "[1]", "result": 35, "unit": "s⁻¹"}]}]}
